Measured values from patent US4588726A, “1-cyclopropyl-6-fluoro-1 ,4-dihydro-4-oxo-7-(3-oxo-1-piperazinyl)-3-quinolinecarboxylic acid antibacterial agents” (Bayer Aktiengesellschaft, priority 1984, dated 1986).
In brackets after ≈: the same amount, converted by molar mass.

Columns and labels:
Staph. 133 = test: MIC of the compound of Example 1 compared with norfloxacin, Staph. 133; format: cell-based; conditions: Staphylococcus
Excerpt: (§1) Tables 1 and 2 below show examples of the MIC values of the compound of Example 1 compared with norfloxacin.

[1] = test system: Gram-positive and Gram-negative organisms; conditions: J. Med. Chem. 23, 1358 (1980); cited from earlier work
Staph.aur. FK 422 = test: MIC of the compound of Example 1 compared with norfloxacin, Staph.aur. FK 422; format: cell-based; conditions: Staphylococcus aureus
Excerpt: as §1

Staph. 25151 = test: Microtitre assay/urine, MIC, Staph. 25151; format: cell-based; conditions: Staphylococcus
Excerpt: as §1
(§2) Microtitre assay/urine (80% pooled human urine,
(§3) 20% isosensitest medium)

Staph. 1756 = test: MIC of the compound of Example 1 compared with norfloxacin, Staph. 1756; format: cell-based; conditions: Staphylococcus
Excerpt: as §1

E. coli C14 = test: Microtitre assay/urine, MIC, E. coli C14; format: cell-based; conditions: Escherichia coli
Excerpt: as §1, §2, §3

[2] = pH 7.1, Staph. 25151, head prints only pH 7.1
[3] = pH 7.1, Staph. 25151, urine pH 7.1, 80% pooled human urine, 20% isosensitest medium
[4] = C14, pH 7.1, E. coli C14, head prints only pH 7.1
[5] = C14, pH 7.1, E. coli C14, urine pH 7.1, 80% pooled human urine, 20% isosensitest medium

Structure (SMILES)	MIC (Staph. 133) [µg/mL]	antibacterial properties [1]	MIC (Staph.aur. FK 422) [µg/mL]	MIC (Staph. 25151; [2]) [µg/mL]	MIC (Staph. 25151; [3]) [µg/mL]	MIC (Staph. 1756) [µg/mL]	MIC (E. coli C14; [4]) [µg/mL]	MIC (E. coli C14; [5]) [µg/mL]
CCn1cc(C(=O)O)c(=O)c2cc(F)c(N3CCNCC3)cc21 [Norfloxacin, 1-ethyl-6-fluoro-1,4-dihydro-4-oxo-7-(1-piperazinyl)-3-quinolinecarboxylicacid]	1	has antibacterial properties	2	4 (≈ 12.5 µM)	4 (≈ 12.5 µM)	2	0.5 (≈ 1.57 µM)	4 (≈ 12.5 µM)
O=C1CN(c2cc3c(cc2F)c(=O)c(C(=O)O)cn3C2CC2)CCN1 [Example 1, 1-cyclopropyl-6-fluoro-1,4-dihydro-4-oxo-7-(3-oxo-1-piperazinyl)-3-quinolinecarboxylic acid]	0.5		0.5	0.5 (≈ 1.45 µM)	0.25 (≈ 0.724 µM)	0.25	0.25 (≈ 0.724 µM)	0.25 (≈ 0.724 µM)
